{"source": "paper PMC7085114", "about": "(Biochemistry, 2020)", "key": {"SARM1 TIR domain [1]": {"target": "T1, SARM1 TIR domain (Homo sapiens, UniProt Q6SZW1)", "T1 sequence (Q6SZW1 561-724)": "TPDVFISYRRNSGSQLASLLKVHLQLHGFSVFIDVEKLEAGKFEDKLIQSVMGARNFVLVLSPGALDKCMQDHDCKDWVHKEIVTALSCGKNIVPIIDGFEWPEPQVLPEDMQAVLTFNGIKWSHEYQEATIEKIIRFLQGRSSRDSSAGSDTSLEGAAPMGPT", "assay": "Continuous fluorescent ENAD hydrolysis assay, SARM1 TIR domain in lysate", "format": "biochemical", "details": "for Inhibition of SARM1 (in words): 0 – 1 mM analog, ENAD 50 μM"}, "SARM1 SAM^1–2TIR domains": {"target": "T2, SARM1 SAM^1–2TIR domains (Homo sapiens, UniProt Q6SZW1)", "T2 sequence (Q6SZW1 412-724)": "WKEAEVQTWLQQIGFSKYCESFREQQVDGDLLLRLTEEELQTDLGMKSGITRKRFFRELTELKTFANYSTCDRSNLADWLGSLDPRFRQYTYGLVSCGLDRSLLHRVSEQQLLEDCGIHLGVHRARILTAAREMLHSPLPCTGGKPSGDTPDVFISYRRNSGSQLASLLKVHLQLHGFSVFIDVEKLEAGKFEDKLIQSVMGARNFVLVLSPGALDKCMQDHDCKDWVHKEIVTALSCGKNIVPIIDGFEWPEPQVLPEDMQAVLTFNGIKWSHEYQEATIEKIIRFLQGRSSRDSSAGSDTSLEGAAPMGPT", "details": "SAM TIR construct, substrate ENAD"}, "full length SARM1": {"target": "T3, full length SARM1 (Homo sapiens, UniProt Q6SZW1)", "T3 sequence (Q6SZW1 28-724)": "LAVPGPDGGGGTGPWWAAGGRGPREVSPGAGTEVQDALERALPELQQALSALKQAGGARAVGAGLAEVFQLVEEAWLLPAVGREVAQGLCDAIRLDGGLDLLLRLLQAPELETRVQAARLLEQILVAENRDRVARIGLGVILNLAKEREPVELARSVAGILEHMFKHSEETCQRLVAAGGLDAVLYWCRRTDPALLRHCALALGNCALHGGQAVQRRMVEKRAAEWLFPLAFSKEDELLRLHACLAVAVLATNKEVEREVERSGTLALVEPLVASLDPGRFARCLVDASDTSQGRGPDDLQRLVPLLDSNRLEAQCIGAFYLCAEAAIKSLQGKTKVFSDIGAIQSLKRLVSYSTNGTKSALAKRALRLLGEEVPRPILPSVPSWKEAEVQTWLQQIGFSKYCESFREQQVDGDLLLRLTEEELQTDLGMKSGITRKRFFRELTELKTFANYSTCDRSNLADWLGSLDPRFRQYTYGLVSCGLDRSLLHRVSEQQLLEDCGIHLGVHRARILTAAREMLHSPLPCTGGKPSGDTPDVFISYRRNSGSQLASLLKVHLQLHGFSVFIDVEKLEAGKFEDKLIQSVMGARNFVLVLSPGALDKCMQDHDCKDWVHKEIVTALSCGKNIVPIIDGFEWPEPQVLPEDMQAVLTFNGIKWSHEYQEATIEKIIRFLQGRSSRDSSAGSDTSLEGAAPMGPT", "details": "Full length SARM1, substrate ENAD"}, "SARM1 TIR domain [2]": {"target": "T1, SARM1 TIR domain", "assay": "Luminescent NNMT-coupled NAD+ hydrolysis assay", "format": "biochemical", "details": "TIR domain on affinity beads, substrate NAD^+"}, "Sir2": {"system": "Sir2", "details": "ref [24]–[27]; cited from earlier work"}, "CD38": {"target": "CD38", "details": "cited from earlier work"}, "[3]": {"details": "300 nM SARM1, ENAD 0 – 400 μM varied"}, "[4]": {"details": "2 mM metal or EDTA, 300 nM SARM1, 200 μM ENAD"}}, "note": "Entries after “also recorded” stand apart in the source; their conditions may differ. Like-named read-outs stand apart in the source and are kept apart here."}
{"smiles": "O[C@@H](CS)[C@@H](O)CS", "note": "(racemic) [DTT, dithiothreitrol]", "values": [{"measurement": "Effect of reducing agents on SARM1 activity", "setting": "SARM1 TIR domain [1]; 0 – 2 mM reducing agent, 100 μM ENAD", "value": "Neither DTT nor TCEP altered SARM1 activity"}]}
{"smiles": "NC(=O)c1cnccc1Cl", "note": "[4–CN, 4–chloronicotinamide]", "values": [{"measurement": "IC50", "setting": "SARM1 TIR domain [1]", "value": "640 ± 40", "unit": "µM"}, {"measurement": "Ki", "setting": "SARM1 TIR domain [1]", "value": "700 ± 30", "unit": "µM"}, {"measurement": "Inhibition of SARM1 (in words)", "setting": "SARM1 TIR domain [1]", "value": "inhibit SARM1"}, {"measurement": "Pattern (mechanism) of inhibition", "setting": "SARM1 TIR domain [1]; [3]", "value": "noncompetitive"}, {"measurement": "Pattern (mechanism) of inhibition", "setting": "SARM1 TIR domain [1]; 300 nM SARM1, ENAD 0 – 400 μM varied, listed as 4-Chloronicotinamide", "value": "noncompetitively"}]}
{"smiles": "NC(=O)c1ccc(Cl)nc1", "note": "[6-CN, 6–chloronicotinamide]", "values": [{"measurement": "Inhibition of SARM1 (in words)", "setting": "SARM1 TIR domain [1]", "value": "inhibit SARM1"}]}
{"smiles": "Nc1ncnc2c1ncn2[C@@H]1O[C@H](COP(=O)(O)OP(=O)(O)OC[C@H]2OC(O)[C@H](O)[C@@H]2O)[C@@H](O)[C@H]1O", "note": "(stereo partly shown) [ADPR, ADP Ribose]", "values": [{"measurement": "Ki", "setting": "SARM1 TIR domain [1]; [3]", "value": "90 ± 10", "unit": "µM"}, {"measurement": "Pattern (mechanism) of inhibition", "setting": "SARM1 TIR domain [1]; [3]", "value": "competitive; also recorded: competitively"}]}
{"smiles": "[Ca+2].[Cl-].[Cl-]", "note": "[CaCl2]", "values": [{"measurement": "Effect of divalent metal ions and EDTA on SARM1 catalysis", "setting": "SARM1 TIR domain [1]; [4]", "value": "only Ni^2+ and Zn^2+ inhibit SARM1"}]}
{"smiles": "[Cl][Cd][Cl]", "note": "[CdCl2]", "values": [{"measurement": "Effect of divalent metal ions and EDTA on SARM1 catalysis", "setting": "SARM1 TIR domain [1]", "value": "only Ni^2+ and Zn^2+ inhibit SARM1"}]}
{"smiles": "[Cl-].[Cl-].[Co+2]", "note": "[CoCl2]", "values": [{"measurement": "Effect of divalent metal ions and EDTA on SARM1 catalysis", "setting": "SARM1 TIR domain [1]", "value": "only Ni^2+ and Zn^2+ inhibit SARM1"}]}
{"smiles": "[Cl][Cu][Cl]", "note": "[CuCl2]", "values": [{"measurement": "Effect of divalent metal ions and EDTA on SARM1 catalysis", "setting": "SARM1 TIR domain [1]; [4]", "value": "only Ni^2+ and Zn^2+ inhibit SARM1"}]}
{"smiles": "O=C(O)CN(CCN(CC(=O)O)CC(=O)O)CC(=O)O", "note": "[EDTA, ethylenediaminetetraacetic acid]", "values": [{"measurement": "Effect of divalent metal ions and EDTA on SARM1 catalysis", "setting": "SARM1 TIR domain [1]; [4]", "value": "lack of an effect"}]}
{"smiles": "NC(=O)c1ccc[n+]([C@@H]2O[C@H](COP(=O)([O-])OP(=O)(O)OC[C@H]3O[C@@H](n4cnc5c4ncn4ccnc54)[C@H](O)[C@@H]3O)[C@@H](O)[C@H]2O)c1", "note": "[ENAD, Nicotinamide 1, N^6–ethenoadenine dinucleotide]", "values": [{"measurement": "Km", "setting": "SARM1 TIR domain [1]", "value": "35 ± 10", "unit": "µM"}, {"measurement": "kcat", "setting": "SARM1 TIR domain [1]; TIR domain, substrate ENAD, fluorescent assay", "value": "0.06 ± 0.03", "unit": "s⁻¹"}, {"measurement": "Km", "setting": "SARM1 SAM^1–2TIR domains", "value": "130 ± 20", "unit": "µM"}, {"measurement": "kcat", "setting": "SARM1 SAM^1–2TIR domains", "value": "0.12 ± 0.02", "unit": "s⁻¹"}, {"measurement": "Km", "setting": "full length SARM1", "value": "70 ± 20", "unit": "µM"}, {"measurement": "kcat", "setting": "full length SARM1", "value": "0.40 ± 0.04", "unit": "s⁻¹"}]}
{"smiles": "[Cl-].[Cl-].[Mg+2]", "note": "[MgCl2]", "values": [{"measurement": "Effect of divalent metal ions and EDTA on SARM1 catalysis", "setting": "SARM1 TIR domain [1]; [4]", "value": "only Ni^2+ and Zn^2+ inhibit SARM1"}]}
{"smiles": "[Cl][Mn][Cl]", "note": "[MnCl2]", "values": [{"measurement": "Effect of divalent metal ions and EDTA on SARM1 catalysis", "setting": "SARM1 TIR domain [1]; [4]", "value": "only Ni^2+ and Zn^2+ inhibit SARM1"}]}
{"smiles": "NC(=O)c1ccc[n+]([C@@H]2O[C@H](COP(=O)([O-])OP(=O)(O)OC[C@H]3O[C@@H](n4cnc5c(N)ncnc54)[C@H](O)[C@@H]3O)[C@@H](O)[C@H]2O)c1", "note": "[NAD^+]", "values": [{"measurement": "Km", "setting": "SARM1 TIR domain [2]", "value": "28 ± 6", "unit": "µM"}, {"measurement": "kcat", "setting": "SARM1 TIR domain [2]", "value": "0.21 ± 0.03", "unit": "s⁻¹"}]}
{"smiles": "[Cl][Ni][Cl]", "note": "[Ni^2+, NiCl2]", "values": [{"measurement": "Effect of divalent metal ions and EDTA on SARM1 catalysis", "setting": "SARM1 TIR domain [1]", "value": "inhibit SARM1"}, {"measurement": "IC50", "setting": "SARM1 TIR domain [1]; read-out: IC50 of metal ion inhibition of SARM1", "value": "600 ± 100", "unit": "µM"}]}
{"smiles": "O=C(O)CCP(CCC(=O)O)CCC(=O)O", "note": "[TCEP, tris(2–carboxyethyl)phosphine]", "values": [{"measurement": "Effect of reducing agents on SARM1 activity", "setting": "SARM1 TIR domain [1]", "value": "Neither DTT nor TCEP altered SARM1 activity"}]}
{"smiles": "[Cl-].[Cl-].[Zn+2]", "note": "[Zn^2+, ZnCl2]", "values": [{"measurement": "Effect of divalent metal ions and EDTA on SARM1 catalysis", "setting": "SARM1 TIR domain [1]; [4]", "value": "inhibit SARM1"}]}
{"smiles": "NC(=O)c1cccnc1", "note": "[nicotinamide]", "values": [{"measurement": "Pattern of inhibition", "setting": "Sir2", "value": "noncompetitive"}, {"measurement": "Ki", "setting": "CD38; ref [23]", "value": 7.1, "unit": "mM"}, {"measurement": "Pattern of inhibition", "setting": "CD38; ref [24]–[27]", "value": "mixed inhibition"}]}
